Data from US8790889B2, “Neuronal stimulation” (The University of Queensland, priority 2009, dated 2014).
“Also recorded” adds a separate entry of the source.

How the values were obtained:
[1] = tested on: adult hippocampal precursors; assay: Adult hippocampal neurosphere culture; type: cell-based, mouse; conditions: for effect of antagonist on norepinephrine-stimulated increase in neurosphere numbers: in presence of norepinephrine, prazosin 100 nM, propranolol 1 μM, CGP20712 10 nM, SR59230A 10 nM; for effect of antagonist on norepinephrine-stimulated increase in neurosphere numbers / increase in neurosphere numbers compared to the control: yohimbine 1 μM, ICI118,551 10 nM; for neurosphere numbers with antagonist alone / increase in neurosphere numbers compared to the control: no norepinephrine, antagonist alone
Description: Animals were treated in accordance with the Australian Code of Practice for the Care and Use of Animals for Scientific Purposes and ethics approval was obtained for all experiments from the Animal Ethics Committee of the University of Queensland. 8-10 week old male C57/B16 mice were killed by cervical dislocation and their brains removed. Brains were bisected along the midline in the sagittal plane. The hippocampi were isolated from the overlying cortex and minced using a scalpel blade. Minced tissue was digested in 0.1% papain (Invitrogen, Melbourne, Australia) for 20 minutes at 37° C., after which an excess of NeuroCult NSC basal medium (Stem Cell Technologies, Vancouver, Canada) was added to halt the digestion. Tissue was then centrifuged at 100 rcf for 5 minutes, the resulting pellet was resuspended in 1 ml of complete neurosphere medium, and a single cell suspension was achieved by gentle trituration. The cells were filtered through a 40 μm cell sieve (BD Biosciences, Sydney, Australia) and resuspended in NeuroCult NSC basal medium containing NeuroCult proliferation supplements (Stem Cell Technologies), 2% bovine serum albumin (Invitrogen) and 2 μg/ml heparin (Sigma-Aldrich, Sydney, Australia). The growth factors added were 20 ng/ml EGF (receptor grade, BD Biosciences) and 10 ng/ml bFGF (recombinant bovine, Roche, Basel, Switzerland). The cells were then plated in a 96-well plate and cultured in complete neurosphere medium containing EGF and bFGF, in the presence or absence of 5-hydroxytryptamine hydrochloride (serotonin; 100 nM, 1 μM, 10 μM), L-(−)-noradrenaline (+)-bitartrate salt monohydrate (norepinephrine; 100 nM, 1 μM, 10 μM) or KCl (15 mM). The adrenergic receptor antagonists used were prazosin (100 nM), yohimbine (1 μM), propranolol (1 μM), CGP20712 (10 nM), ICI118,551 (10 nM) and SR59230A (10 nM). BRL37344 was used as a selective β3 adrenergic receptor agonist. All the compounds were purchased from Sigma-Aldrich. The number of primary neurospheres was counted on day 10-13 and expressed as a percentage relative to the control.

hippocampal precursors [2] = assay: Slice-sphere assay (hippocampal organotypic slices, then neurosphere culture); type: cell-based, rat; conditions: for effect on precursor numbers / frequency of neurosphere generation: 1 μM or 10 μM; for neurosphere frequency: FIG. 8b, 1 μM
Description: D-glucose (Sigma-Aldrich) was added to the medium to a final concentration of 5 mM. Four filters, each containing 6-7 hippocampal slices, were generated from a single animal. Plates were incubated at 37° C. in a humidified 5% CO2 incubator and the slices were cultured for 6 days. To assess the influence of specific compounds on hippocampal precursor proliferation in the slice culture, compounds were added to the complete medium at the doses described below. Two filters were treated with the compounds for each dose per experiment. On every alternate day half the medium was removed and replaced with fresh medium containing the compounds. Slices were treated with serotonin at 10 μM and 100 μM and norepinephrine at 1 μM, 10 μM and 100 μM. […] Propranolol (10 μM) was used to block β adrenergic receptors in the slices. On the 6th day of culture, the hippocampal slices from each treatment group were pooled and the tissue was minced using a scalpel blade. Minced tissue was then treated with 0.1% trypsin-EDTA (Invitrogen) for 5 minutes at 37° C. […] A single cell suspension was achieved by gentle trituration. The total number of viable cells in an aliquot was counted on a haemocytometer based on the exclusion of 0.08% trypan blue (Sigma-Aldrich). The cells were then cultured in complete neurosphere medium containing EGF and bFGF. […] For each experiment there were 20 wells plated for each of the doses per treatment group. The plates were incubated at 37° C. in a humidified 5% CO2 incubator.

hippocampal precursors [3] = assay: Intrahippocampal infusion for 7 days, hippocampal neurospheres; type: in vivo, mouse; conditions: 10 μM intrahippocampal infusion for 7 days
Description: (§1) Neurospheres with a diameter greater than […] may be derived from BRL37344 treated mice.

[4] = tested on: stem cells in the hippocampus; assay: i.p. treatment for 7 days, hippocampal neurospheres; type: in vivo, mouse; conditions: 10 mg/kg i.p. for 7 days
Description: as §1

COc1cc2nc(N3CCN(C(=O)c4ccco4)CC3)nc(N)c2cc1OC [prazosin] was tested, and the “effect of antagonist on norepinephrine-stimulated increase in neurosphere numbers” value [1] was “failed to inhibit”.
In the case of CC(C)NCC(O)COc1cccc2ccccc12 (centres unmarked) [propranolol], the “neurosphere numbers with antagonist alone” value [1] is reported as “no toxic effect”, the “effect of antagonist on norepinephrine-stimulated increase in neurosphere numbers” value [1] is reported as “reduced the norepinephrine-mediated response back to control levels; also recorded: completely inhibited” and the “effect on norepinephrine-mediated increase in precursor activity” value (hippocampal precursors [2]; propranolol 10 μM in presence of norepinephrine) is reported as “completely inhibit; also recorded: abolished”. For the same compound, the “effect on reboxetine-mediated increase in precursor activity” value (hippocampal precursors [2]; propranolol 10 μM in presence of reboxetine) was “completely inhibit; also recorded: abolished”.
CC(Cc1ccc(OCC(=O)[O-])cc1)NCC(O)c1cccc(Cl)c1.[Na+] (centres unmarked) [BRL37344] was tested, and the “neurosphere numbers compared to norepinephrine treatment” value ([1]; 1 μM and 10 μM, comparison 10 μM norepinephrine) was “increase in neurosphere numbers similar to that observed in the presence of 10 μM norepinephrine”, the “activation of hippocampal precursors” value (hippocampal precursors [3]) was “activation of hippocampal precursors” and the “number of neurospheres with a diameter greater than 100 μM” value (hippocampal precursors [3]) was “much greater”. The “total number of neurospheres derived from treated mice” value (hippocampal precursors [3]) was “greater than when saline is infused”, the large neurospheres obtained [4] was “increase in, large neurospheres; also recorded: increase in large neurospheres” and the “activation of stem cells in the hippocampus” value ([4]; 8 weeks old C57/B16 mice, n=7) was “significant activation of stem cells in the hippocampus”.
With [Cl-].[K+] [KCl] the “increase in neurosphere numbers” value ([1]; KCl 15 mM alone) was 2 fold.
In the case of CNCCC(Oc1ccc(C(F)(F)F)cc1)c1ccccc1 (centres unmarked) [fluoxetine], the “effect on precursor numbers / frequency of neurosphere generation” value (hippocampal precursors [2]) is reported as “no significant change” and the “effect on precursor numbers / frequency of neurosphere generation” value (hippocampal precursors [2]; listed as Fluoxetine) is reported as “no effect”.
In the case of CN(C)CCCC1(c2ccc(F)cc2)OCc2cc(C#N)ccc21 (centres unmarked) [citalopram], the “neurosphere frequency as percentage of the control” value (shortened to “neurosphere frequency as percentage”) (hippocampal precursors [2]; slices treated at 10 μM) is reported as 113.8±9.9% and the “neurosphere frequency as percentage” value (hippocampal precursors [2]; slices treated at 100 μM) is reported as 103.8±3.8%.
In the case of CCOc1ccccc1OC(c1ccccc1)C1CNCCO1 (centres unmarked) [reboxetine], the “frequency of neurosphere formation” value (hippocampal precursors [2]; 10 μM and 100 μM) is reported as “significantly enhanced”, the “neurosphere frequency as percentage” value (hippocampal precursors [2]; slices treated at 1 μM) is reported as 104.5±9.6% and the “increase in frequency of neurosphere formation” value (hippocampal precursors [2]; slices treated at 10 μM) is reported as 40%. The “neurosphere frequency as percentage” value (hippocampal precursors [2]; slices treated at 100 μM) was 265.0±11.7%.
In the case of CNCC[C@@H](Oc1ccccc1C)c1ccccc1 [atomoxetine], the neurosphere frequency (hippocampal precursors [2]) is reported as “significant increase” and the “neurosphere frequency as percentage” value (hippocampal precursors [2]; slices treated at 1 μM) is reported as 147.0±15.0%.
In the case of Cn1cc(C(F)(F)F)nc1-c1ccc(OCC(O)CNCCOc2ccc(O)c(C(N)=O)c2)cc1 (centres unmarked) [CGP20712, 2-hydroxy-5-(2-[{2-hydroxy-3-(4-[1-methyl-4-trifluoromethyl-2-imidazolyl]phenoxy)-propyl}amino]ethoxy)benzamide], the “effect of antagonist on norepinephrine-stimulated increase in neurosphere numbers” value [1] is reported as “no such effect”.
CCc1ccccc1OC[C@@H](O)CN[C@H]1CCCc2ccccc21.O=C(O)C(=O)O [SR59230A, 3-(2-ethylphenoxy)-1([1s]-1,2,3,4-tetrahydronaphth-1-ylamino)-2S-propanol oxalate] was tested, and the “effect of antagonist on norepinephrine-stimulated increase in neurosphere numbers” value [1] was “completely blocked; also recorded: completely inhibited”.
For COC(=O)[C@@H]1[C@H]2C[C@H]3c4[nH]c5ccccc5c4CCN3C[C@@H]2CC[C@@H]1O [yohimbine], the “neurosphere numbers with antagonist alone” value [1] was “slight but significant increase”, the “increase in neurosphere numbers compared to the control” value [1] was 40% and the “effect of antagonist on norepinephrine-stimulated increase in neurosphere numbers” value [1] was “failed to inhibit”.
With CNCCCC12CCC(c3ccccc31)c1ccccc12 [maprotiline] the neurosphere frequency (hippocampal precursors [2]) was “significant increase” and the “neurosphere frequency as percentage” value (hippocampal precursors [2]; slices treated at 1 μM) was 258.5±25.5%.
Cl.NCCc1c[nH]c2ccc(O)cc12 [serotonin, 5-hydroxytryptamine hydrochloride] was tested, and the “neurosphere numbers compared to the control” value ([1]; 100 nM, 1 μM or 10 μM, EGF and bFGF present) was “no change”, the “effect on frequency of neurosphere formation” value (hippocampal precursors [2]; 10 μM or 100 μM) was “no effect” and the “neurosphere frequency as percentage” value (hippocampal precursors [2]; slices treated at 10 μM) was 90.07±5.4%. For the same compound, the “neurosphere frequency as percentage” value (hippocampal precursors [2]; slices treated at 100 μM) was 102.81±31.7%.
For Cc1ccc(OCC(O)C(C)NC(C)C)c2c1CCC2 (centres unmarked) [ICI118,551], the “neurosphere numbers with antagonist alone” value [1] was “significant increase” and the “increase in neurosphere numbers compared to the control” value [1] was “about 34%”.
